According to BindingDB's records for doi:10.1021/jm500569h (Georgetown University, 2014):

assay: Agonist activity at ER in human MCF7:WS8 cells assessed as increase in cell growth by measuring DNA level after 7 days by fluorescence analysis

In order of falling EC50:
1. CNCCOc1ccc2c(c1)CCCC(c1ccccc1)=C2c1ccc(O)cc1  20 nM
2. CN(C)CCOc1ccc2c(c1)CCCC(c1ccccc1)=C2c1ccc(O)cc1  15 nM
3. COc1ccc2c(c1)CCCC(c1ccccc1)=C2c1ccc(O)cc1  4 nM
4. CCOc1ccc2c(c1)CCCC(c1ccccc1)=C2c1ccc(O)cc1  2.7 nM
5. COc1ccc(C2=C(c3ccccc3)CCCc3cc(O)ccc32)cc1  0.3 nM
6. CCOc1ccc(C2=C(c3ccccc3)CCCc3cc(O)ccc32)cc1  0.3 nM
7. CCC(=C(c1ccc(O)cc1)c1ccc(O)cc1)c1ccc(O)cc1  0.15 nM
8. CCC(=C(c1ccc(O)cc1)c1ccc(O)cc1)c1ccccc1 [1,1-bis(4,4'-hydroxyphenyl)-2-phenylbut-1-ene]  0.015 nM

assay: Antagonist activity at ER in human MCF7:WS8 cells assessed as inhibition of estradiol-induced cell growth by measuring DNA level after 7 days by fluorescence analysis

In order of falling IC50:
1. CCOc1ccc2c(c1)CCCC(c1ccccc1)=C2c1ccc(OCCN(C)C)cc1  3 nM
2. CNCCOc1ccc(C2=C(c3ccccc3)CCCc3cc(O)ccc32)cc1  3 nM
